Measured values published in BindingDB's records for doi:10.1038/nchembio.2326 (California Institute of Technology, 2017).

Tests used:
[1] = molecular target: 26S proteasome non-ATPase regulatory subunit 14 (Homo sapiens, UniProt O00487); assay: In Vitro Rpn11 Activity Assay; conditions: pH 7.5; 30 °C
Method: Fluorescence polarization assays were performed in low-volume 384-well solid black plates (Molecular Devices) in quadruplicate. The assays were performed in buffer containing 50 mM Tris-HCl pH7.5, 1 mM MgCl2, 50 μM ATP, 1 mM DTT and 0.01% NP-40. The components for the assay were added in the following sequence: (1) 5 μl compound (in 3% DMSO) at different concentrations, (2) 5 μl of diluted human 26S proteasome (Enzo Life Sciences, NY. 26S proteasome was pre-incubated with epoxomicin at room temperature for 1 h, then diluted ten-fold in 1× Assay Buffer), and (3) 5 μl of substrate (3 nM Ub4peptideOG). 100 μM Zn(cyclen)2+ was present in the titration reaction for the experiments performed with Zn(cyclen)2+. Fluorescence polarization was measured at 30 °C using a PHERAstar plate reader (BMG Labtech) with excitation at 480 nm and emission at 520 nm.

Histone deacetylase 6 = molecular target: T1, Histone deacetylase 6 (Homo sapiens, UniProt Q9UBN7); assay: HDAC6 Activity Assay; conditions: pH 8; 37 °C
T1 sequence (Q9UBN7 whole entry): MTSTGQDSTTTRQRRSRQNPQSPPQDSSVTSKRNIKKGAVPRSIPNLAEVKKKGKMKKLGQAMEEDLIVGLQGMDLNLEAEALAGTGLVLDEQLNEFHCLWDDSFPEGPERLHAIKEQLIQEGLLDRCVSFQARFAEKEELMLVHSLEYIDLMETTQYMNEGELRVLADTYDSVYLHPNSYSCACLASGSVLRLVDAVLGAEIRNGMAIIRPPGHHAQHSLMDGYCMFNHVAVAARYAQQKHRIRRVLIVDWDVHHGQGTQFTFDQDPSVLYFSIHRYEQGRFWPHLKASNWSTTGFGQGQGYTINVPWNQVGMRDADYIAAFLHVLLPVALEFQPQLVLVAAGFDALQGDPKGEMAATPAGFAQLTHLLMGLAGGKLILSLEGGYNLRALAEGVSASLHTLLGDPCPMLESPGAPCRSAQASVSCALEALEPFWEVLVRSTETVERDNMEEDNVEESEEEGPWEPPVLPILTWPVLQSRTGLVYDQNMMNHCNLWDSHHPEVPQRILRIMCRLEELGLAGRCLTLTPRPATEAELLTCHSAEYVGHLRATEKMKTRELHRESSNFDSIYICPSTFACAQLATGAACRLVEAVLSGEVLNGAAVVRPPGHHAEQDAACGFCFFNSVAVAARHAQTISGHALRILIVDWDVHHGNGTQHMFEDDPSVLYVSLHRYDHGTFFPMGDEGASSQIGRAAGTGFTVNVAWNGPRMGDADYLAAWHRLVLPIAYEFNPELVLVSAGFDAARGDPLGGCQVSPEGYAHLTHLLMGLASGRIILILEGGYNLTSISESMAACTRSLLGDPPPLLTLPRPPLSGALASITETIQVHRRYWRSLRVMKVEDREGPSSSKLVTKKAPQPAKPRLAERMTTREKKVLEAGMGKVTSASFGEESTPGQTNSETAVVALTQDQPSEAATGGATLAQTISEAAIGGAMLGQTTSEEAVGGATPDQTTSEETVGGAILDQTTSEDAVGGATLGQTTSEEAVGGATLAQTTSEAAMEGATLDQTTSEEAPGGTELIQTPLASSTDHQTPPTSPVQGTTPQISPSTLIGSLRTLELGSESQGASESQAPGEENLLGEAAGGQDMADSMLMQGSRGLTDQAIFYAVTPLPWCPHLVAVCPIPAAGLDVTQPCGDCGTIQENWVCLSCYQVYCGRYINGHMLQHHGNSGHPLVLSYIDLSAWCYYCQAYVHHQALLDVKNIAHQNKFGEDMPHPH
Method: The enzyme was diluted with 25 mM Tris-Cl, 137 mM NaCl, 2.7 mM KCl, 1 mM MgCl2, 0.1 mg/ml BSA, pH 8.0 buffer and its activity was measured by using Substrate 3 (BPS Bioscience; catalog #50037). The assays were carried out in black, low-binding NUNC 96-well plates. Each well contained a volume of 50 μl including buffer, HDAC (50 ng/well), inhibitor, and substrate (20 μM). Prior to adding substrate, the plate was pre-incubated for 5 min. Upon addition of substrate, the plate was incubated at 37 °C for 30 min. At this point, HDAC assay developer (50 μl, BPS Bioscience; catalog #50030) was added to each well and the plate was incubated for 15 min at room temperature. The fluorescence was recorded with a BioTek FLx800 or Synergy H4 microplate reader.

Lactoylglutathione lyase = Lactoylglutathione lyase (Homo sapiens, UniProt Q04760); assay: GLO1 Activity Assay; conditions: pH 7; 25 °C
Method: Assays were carried out in 100 mM sodium phosphate, pH 7.0 buffer using 96-well Clear UV Plate (Corning UV Transparent Microplates; catalog #3635). A fresh solution of glutathione (pre-substrate 1, 100 mM) as well as methylglyoxal (pre-substrate 2, 100 mM) was prepared in deionized water. The substrate was prepared by adding 14.5 ml of buffer and 0.99 ml of each pre-substrate components. The substrate mixture was vortexed vigorously for 15 s, then allowed to sit at room temperature for 20 min. Initial well volume was 50 μl containing GLO1 (40 ng) and inhibitor. This protein and inhibitor mixture was incubated for 15–20 min before the addition of substrate. To this was then added substrate (150 μl), yielding a maximum amount of 5% DMSO per well. The enzyme activity was measured using a BioTek Synergy H4 plate reader by measuring absorbance at 240 nmevery 1 min for 8 min.

[2] = molecular target: Macrophage metalloelastase (Homo sapiens, UniProt P39900); assay: MMP Activity Assay; conditions: pH 7.5; 37 °C
Method: (§1) The assay was carried out in white NUNC 96-well plates as previously described [Puerta et al., J. Biol. Inorg. Chem., 11:131-138]. Each well contained a total volume of 90 μl including buffer (50 mM HEPES, 10 mM CaCl2, 0.05% Brij-35, pH 7.5), human recombinant MMP (1.16 U/well for MMP2 and 0.007 U/well for MMP12), and the fragment solution. This mixture was incubated at 37 °C for 30 min. The reaction was then initiated by the addition of 10 μl of the fluorogenic MMP substrate (4 μM final concentration, Mca-Pro-Leu-Gly-Leu-Dpa-Ala-Arg-NH2-AcOH) (Mca = (7-methoxycoumarin-4-yl) acetyl; Dpa = N-3-(2,4-dinitrophenyl)-L-a,β-diaminopropionyl). Fluorescence measurements were recorded using a BioTek Synergy H4 fluorescence plate reader every minute for 20 min with excitation and emission wavelengths at 320 and 400 nm, respectively.

[3] = molecular target: 72 kDa type IV collagenase (Homo sapiens, UniProt P08253); assay: MMP Activity Assay; conditions: pH 7.5; 37 °C
Method: as §1

[4] = molecular target: BRISC and BRCA1-A complex member 1/BRISC and BRCA1-A complex member 2/BRISC complex subunit Abraxas 2/Lys-63-specific deubiquitinase BRCC36 (Human, UniProt P46736+Q15018+Q9NWV8+Q9NXR7); assay: In Vitro BRCC36 Activity Assay
Method: BRCC36 activity was measured using 1 nM purified BRISC complex and 80 nM di-ubiquitin substrate DiUbK63TAMRA (UF-310, Boston Biochem). TAMRA fluorescence intensity was monitored using a PHERAstar plate reader with excitation at 540 nm and emission at 590 nm. Reactions were performed in black low-volume 384-well plates and analyzed as described above.

Sequence of Macrophage metalloelastase (P39900 whole entry, the tested form may be a part): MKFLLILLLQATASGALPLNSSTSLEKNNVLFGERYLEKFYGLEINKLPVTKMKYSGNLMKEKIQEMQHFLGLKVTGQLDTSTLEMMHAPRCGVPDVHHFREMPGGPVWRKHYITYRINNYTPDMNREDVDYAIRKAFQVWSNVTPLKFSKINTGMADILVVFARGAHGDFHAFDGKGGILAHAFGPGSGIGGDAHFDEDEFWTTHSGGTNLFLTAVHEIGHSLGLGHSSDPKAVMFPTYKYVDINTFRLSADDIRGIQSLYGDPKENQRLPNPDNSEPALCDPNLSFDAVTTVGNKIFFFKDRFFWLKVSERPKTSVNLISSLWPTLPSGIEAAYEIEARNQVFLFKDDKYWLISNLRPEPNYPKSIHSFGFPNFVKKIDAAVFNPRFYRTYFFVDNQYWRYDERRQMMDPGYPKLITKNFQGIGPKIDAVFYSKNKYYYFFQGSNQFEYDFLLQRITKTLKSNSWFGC
Sequence of Lactoylglutathione lyase (Q04760 whole entry): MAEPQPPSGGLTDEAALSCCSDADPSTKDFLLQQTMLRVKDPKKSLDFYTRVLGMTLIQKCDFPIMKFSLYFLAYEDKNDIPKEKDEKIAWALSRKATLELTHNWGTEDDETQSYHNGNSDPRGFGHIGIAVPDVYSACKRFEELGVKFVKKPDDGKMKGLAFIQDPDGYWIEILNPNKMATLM
Sequence of 72 kDa type IV collagenase (P08253 whole entry): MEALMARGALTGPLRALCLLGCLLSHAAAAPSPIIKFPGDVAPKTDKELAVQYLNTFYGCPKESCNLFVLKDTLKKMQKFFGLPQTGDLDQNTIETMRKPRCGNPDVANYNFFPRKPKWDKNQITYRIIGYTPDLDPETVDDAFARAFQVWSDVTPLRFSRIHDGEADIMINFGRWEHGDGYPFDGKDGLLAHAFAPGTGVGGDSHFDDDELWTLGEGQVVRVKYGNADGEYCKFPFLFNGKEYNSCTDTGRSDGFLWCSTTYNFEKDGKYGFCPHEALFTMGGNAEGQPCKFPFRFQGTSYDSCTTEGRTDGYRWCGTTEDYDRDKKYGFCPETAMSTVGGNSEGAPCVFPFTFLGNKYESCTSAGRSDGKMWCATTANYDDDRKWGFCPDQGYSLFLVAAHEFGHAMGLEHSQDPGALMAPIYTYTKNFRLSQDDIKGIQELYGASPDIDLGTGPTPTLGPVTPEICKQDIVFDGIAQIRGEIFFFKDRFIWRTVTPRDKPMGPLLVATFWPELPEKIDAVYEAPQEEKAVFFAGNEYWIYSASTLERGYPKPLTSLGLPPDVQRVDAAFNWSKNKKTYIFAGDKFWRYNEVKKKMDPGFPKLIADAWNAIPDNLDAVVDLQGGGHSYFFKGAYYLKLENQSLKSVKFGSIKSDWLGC
Sequence of 26S proteasome non-ATPase regulatory subunit 14 (O00487 whole entry): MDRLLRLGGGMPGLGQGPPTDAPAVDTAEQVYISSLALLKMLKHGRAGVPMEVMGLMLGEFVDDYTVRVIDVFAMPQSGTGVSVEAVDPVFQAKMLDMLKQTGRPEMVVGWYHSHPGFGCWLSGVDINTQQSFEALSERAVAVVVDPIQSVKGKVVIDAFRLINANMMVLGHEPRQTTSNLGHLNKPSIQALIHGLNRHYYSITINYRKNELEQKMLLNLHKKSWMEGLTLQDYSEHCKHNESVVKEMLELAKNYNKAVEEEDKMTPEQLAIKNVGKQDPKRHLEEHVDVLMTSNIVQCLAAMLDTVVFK

Compound | IC50 [1] [µM] | IC50 (Histone deacetylase 6) [µM] | IC50 (Lactoylglutathione lyase) [µM] | IC50 [2] [µM] | IC50 [3] [µM] | IC50 [4] [µM]
Sc1cccc2cccnc12 [8-Mercaptoquinoline (8TQ)] | 2.4 |  |  |  |  | 
O=C(NCCc1nccs1)c1cnc2c(S)cccc2c1 [Capzimin] |  | > 200 | 42.8 | > 50 | > 50 | 2.3
